Experimental data reported in patent publication US5902726A, “Activators of the nuclear orphan receptor peroxisome proliferator-activated receptor gamma” (priority 1998, dated 1999).
Where two headings read alike, the source gives them in different places.

Legend:
[1] = biological target: T1, GAL4-PPARγ chimera (ligand-binding domain of the murine PPARγ) (Mus musculus, UniProt P37238); assay: Transient cotransfection assay: SPAP reporter; type: cell-based; conditions: for fold induction at 10 µM: read-out: Fold Activation
T1 construct: transient in CV-1 cells with UAS-tk-SPAP reporter
T1 sequence (P37238 204-505): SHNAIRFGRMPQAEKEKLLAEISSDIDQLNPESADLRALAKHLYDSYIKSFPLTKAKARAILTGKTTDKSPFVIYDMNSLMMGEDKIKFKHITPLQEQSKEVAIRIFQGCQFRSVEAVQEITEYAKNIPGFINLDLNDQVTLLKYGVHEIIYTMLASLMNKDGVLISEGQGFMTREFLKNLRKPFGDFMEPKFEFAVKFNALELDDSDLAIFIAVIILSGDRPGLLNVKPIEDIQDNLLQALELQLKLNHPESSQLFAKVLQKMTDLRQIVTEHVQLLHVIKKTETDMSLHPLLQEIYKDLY
Description: A transient cotransfection assay was used to screen for activators of PPARγ. As mammalian cell lines contain endogenous nuclear receptors that can complicate interpretation of the results, we used an established chimera system in which the ligand-binding domain of the murine PPARγ was fused to the DNA binding domain of the yeast transcription factor GAL4. The GAL4-PPARγ chimera was cotransfected into CV-1 cells with a reporter construct containing five copies of the GAL4 binding site upstream of the thymidine kinase promoter driving secreted placental alkaline phosphatase (SPAP) as reporter.
GAL4-PPAR chimeras and UAS-tk-CAT/SPAP reporters.
CV-1 cells were plated in DME medium supplemented with 10% delipidated fetal calf serum at a density of 2.4×10^4 cells per well in a 96-well plate (Costar) 16-24 h before transfection. In general, 8.0 ng of reporter plasmid, 25.0 ng of β-galactosidase expression vector (pCH110, Pharamacia), and 2.0 ng of GAL4-PPARγ expression vector were mixed with carrier DNA (pBluescript, Stratagene) to a total of 80 ng of DNA per well in a volume of 10 μl optiME medium (GIBCO BRL). To this, a second mix, containing 9.3 μl optiME medium and 0.7 μl of LIPOFECTAMINE™ (GIBCO BRL), was added. After 30 min. an additional 80 μl of optiME medium were added and the combined mix was then applied to the cells.

pre-adipocyte cell lines = conditions: cited from earlier work
[2] = test system: enhancer/promoter of the lipid-binding protein aP2; conditions: Harris and Kletzien, 1994; cited from earlier work
[3] = test system: glutathione-S-transferase; assay: Binding control in extracts from bacteria expressing glutathione-S-transferase; conditions: extracts from bacteria expressing glutathione-S-transferase alone
Description: (§1) To test for direct interactions between thiazolidinediones and PPARγ,the ligand binding domain of PPARγ was expressed in E. Coli as a fusion protein with glutathionine-S-transferase (GST-PPARγ LBD).

GST-PPARγ LBD = biological target: T2, GST-PPARγ LBD (Mus musculus, UniProt P37238); assay: Saturation binding of radiolabeled ligand to GST-PPARγ LBD; design: species or system murine; conditions: for non-specific binding: 500-fold excess of nontritiated compound
T2 construct: cDNA encoding amino acids 174 to 475 of PPARg1; made in house; host or cells: E. coli BL21 (DE3)plysS, crude bacterial extract
T2 sequence (P37238 174-475 isoform P37238-2): T1 sequence (P37238 204-505)
Description: as §1
Bound was separated from free radioactivity by elution through 1 ml Sephadex G-25 desalting columns (Boehringer Mannheim). Bound radioactivity eluted in the column void volume and was quantitated by liquid scintillation counting.

[4] = CV-1 cells, SPAP reporter, test compound at 10^-5 M, 24 h

CC(C)Oc1cc(CCCCC(=O)O)c(C=CC(=O)CCCCCC(=O)O)c(OC(C)C)c1 [9-[2-(4-Carboxy-butyl)-4,6-diisopropoxy-phenyl]-7-oxo-non-8-enoic acid]
fold induction at 10 µM [1, 4]: 11.3

CC1(C)CCC(C)(C)c2cc3ncc(-c4ccccc4C(=O)O)cc3cc21 [2-(6,6,9,9-tetramethyl-6,7,8,9-tterahydro-benzo[g]quinolin-3-yl)-benzoic acid]
fold induction at 10 µM [1, 4]: 25.9

CN(C)c1ccc(Cc2ccc(N(C)C)cc2CC(=O)O)cc1 [[5-Dimethylamino-2-(4-dimethylamino-benzyl)-phenyl]-acetic acid]
fold induction at 10 µM [1, 4]: 17.8

CCCc1c(-c2ccccc2)[nH]c2ccc(CC(=O)O)cc12 [(2-Phenyl-3-propyl-1H-indol-5-yl)-acetic acid]
fold induction at 10 µM [1, 4]: 21.7

O=C(O)CCCCCCC1=C(c2ccc(C(O)C3CCCC3)cc2)CCC1=O (stereo not drawn) [7-{2-[4-(Cyclopentyl-hydroxy-methyl)-phenyl]-5-oxo-cyclopent-1-enyl}-heptanoic acid]
fold induction at 10 µM [1, 4]: 24.6

CCCCCC(C)c1ccc(C2=CCCC2CCCCCCC(=O)O)cc1 (stereo not drawn) [7-{2-[4-(1-Methyl-hexyl)-phenyl]-cyclopent-2-enyl}-heptanoic acid]
fold induction at 10 µM [1, 4]: 27

CCCCCC(O)C=CC1C(O)CC2CC(=CCCCC(=O)O)CC21 (stereo not drawn) [5-[5-Hydroxy-4-(3-hydroxy-oct-1-enyl)-hexahydro-pentalen-2-ylidene]-pentanoic acid]
fold induction at 10 µM ([1]; CV-1, 24 h): 19.6

CCCCCC(=O)C=CC1C(O)CC(=O)C1CCCCCCC(=O)O (stereo not drawn) [7-[43-Hydroxy-5-oxo-2-(3-oxo-oct-1-enyl)-cyclopentyl]-heptanoic acid]
Fold Activation ([1]; CV-1 cells, SPAP reporter, test compound at 10^-5 M, 24 h, 10 µM): 25.6

CCCCCC(O)C=CC1C(=O)CC(O)C1CC=CCCCC(=O)O (stereo not drawn) [7-[5-Hydroxy-2-(3-hydroxy-oct-1-enyl)-3-oxo-cyclopentyl]-hept-5-enoic acid]
fold induction at 10 µM [1, 4]: 23.8

O=C(O)Cc1ccc2[nH]c(-c3ccccc3)c(CCc3ccccc3)c2c1 [(3-phenethyl-2-phenyl-1H-indol-5-yl)-acetic acid]
fold induction at 10 µM [1, 4]: 21.2

CCc1ccc(CCOc2ccc(CC3SC(=O)NC3=O)cc2)nc1 (stereo not drawn) [pioglitazone]
Expression of adipocyte-specific genes aP2 and adipsin and glucose transporter proteins GLUT-1 and GLUT-4 (pre-adipocyte cell lines): increased expression
Expression of chimeric aP2 enhancer/promoter CAT reporter gene [2]: stimulate expression

CN(CCOc1ccc(CC2SC(=O)NC2=O)cc1)c1ccccn1 (stereo not drawn) [5-{4-[2-(Methyl-pyridine-2-yl-amino)-ethoxy]-benzyl}-thiazolidine-2,4-dione]
Binding [3]: No binding was detected
Specific binding (GST-PPARγ LBD; at 100 nM tritiated ligand): 13,500 dpm
non-specific binding (GST-PPARγ LBD; at 100 nM tritiated ligand): 1,700 dpm
Specific binding (GST-PPARγ LBD; at 200 nM tritiated ligand): 14,500 dpm
non-specific binding (GST-PPARγ LBD; at 200 nM tritiated ligand): 1,900 dpm

Cc1cccc(Nc2cc(Cl)nc(SCC(=O)O)n2)c1C [{4-Chloro-6-(2,3-dimethyl-phenylamino)-pyrimidin-2-ylsulfanyl}-acetic acid]
fold induction at 10 µM [1, 4]: 25.7

O=C1NC(=O)C(Cc2ccc3c(c2)CCC(Cc2ccccc2)O3)S1 (stereo not drawn) [5-(2-Benzyl-chroman-6-ylmethyl)-thiazolidine-2,4-dione]
fold induction at 10 µM [1, 4]: 18.2

CCCCc1nc(Cl)c(C(=O)NCC(=O)OCC)n1Cc1ccc2oc(-c3ccccc3C(=O)O)c(Br)c2c1 [2-[3-Bromo-5-(2-butyl-4-chloro-5-ethoxycarbonylmethylcarbamoyl-imidazol-1-ylmethyl)-benzofuran-2-yl]-benzoic acid]
fold induction at 10 µM [1, 4]: 23.9

CC1(COc2ccc(CC3SC(=O)NC3=O)cc2)CCCCC1 (stereo not drawn) [5-[4-(1-methyl-cyclohexylmethoxy)-benzyl)-thiazolidine-2,4-dione]
fold induction at 10 µM [1, 4]: 46.1
